# Assay results as given in patent publication US20180244653A1, “SELECTIVE ALPHA-7 NICOTINIC RECEPTOR AGONISTS AND METHODS FOR MAKING AND USING THEM” (THE REGENTS OF THE UNIVERSITY OF CALIFORNIA, priority 2015, published 2018).
# “Also recorded” adds a separate entry of the source.
# Experiments:
# [1] = tested on: scopolamine-induced amnesic mice; assay: Water maze test; format: in vivo; details: i.p.; IND8 25 and 50 μmol/kg, QND8 25 μmol/kg
# Description: The water maze test, a model for spatial learning and reference memory, related to function in the hippocampus, was also used as a study model in which mice locate a hidden platform after training session. Mice were trained to locate a hidden platform until a steady state measured by a shortened escape latency time was reached.
# The average swimming time in a target quadrant where the platform had previously been placed was measured in the test day, day 8 (FIG. 25).
# FIG. 25 illustrates the average swimming time in the target quadrant of water maze test. Data are presented in means±SE. IND8, QND8, PNU-282987, vehicle (15% Tween80, SH) and tacrine (TC) were injected 1 h and scopolamine (SC) 30 min before testing, respectively.
# A black circular tank (diameter 70 cm; height 28 cm) was divided into 4 quadrants with a removable escape platform (6×7.5×14 cm) centered in a target quadrant. The tank was filled with water to 15 cm height and the platform was located 1 cm below the water surface.
# Mice were trained from 5-7 days to get the steady state of escape latency. During day 1 to 5, each mouse was trained to swim from each quadrant with 1 min maximum time and allowed to stay on the platform for 10 sec. The mouse is placed on the platform for 10 s if it cannot find the hidden platform within 1 min. The escape latency time from each quadrant was measured. […] The probe test began when the escape latency time reached the steady state. The platform was removed and time spent in the target quadrant was measured. On the next day, all conditions were the same as probe test, but the platform was brought back to remind the mice of the target quadrant location. All mice were injected with test compounds 1 h and scopolamine 30 min before testing. The swimming time in the target quadrant was measured.
# mice = assay: Locomotor activity test (Y-maze); format: in vivo; details: all tested doses, i.p., 1 h before
# Description: A black polyvinyl chloride Y-maze, which was 40 cm long, 3 cm wide at the bottom and 10 cm wide at the top, and 12 cm high in each arm, was used to study the effect of synthesized compounds on locomotor activity. Each mouse was placed at the end of one arm and was allowed to move freely in Y-maze for 8 min after 1 h injection of vehicle or test compounds. The number of entries to all arms was recorded visually if mice accessed into each arm at least 10 cm from the middle of the maze.
# Figure S1. Locomotor activity testing of IND8 (A) and QND8 (B). Mice were injected vehicle or test compounds 1 h before moving freely in Y-maze for 8 min. The number of entries into 3 arms was recorded. The one-way ANOVA was used to evaluate the different result between test and vehicle groups.
# [2] = tested on: scopolamine-induced amnesic mice; assay: Object recognition test (ORT); format: in vivo; details: i.p.; for Discrimination index / episodic short-term memory, ORT vs scopolamine-treated group: tacrine 1 mg/kg, IND8, QND8 10 and 50 μmol/kg; for Minimum effective dose, ORT: scopolamine induced amnesia model, ICR mice
# Description: FIG. 22 illustrates exploration time to familiar (F) and novel (N) objects of IND8 (A) and QND8 (B) in test phase of ORT. Each mouse was allowed to explore an open field apparatus for 5 min in a habituation phase. After a 24 h period, IND8, QND8, PNU-282987, vehicle (15% Tween80, SH) and tacrine (TC) were injected 1 h and scopolamine (SC) 30 min before sample phase, respectively. Each mouse explored 2 identical objects in the sample phase for 5 min and then placed in its cage for 10 min before the test phase began. In the 5 min of test phase, one of the objects was changed to a new one. The exploration time of these objects was recorded.
# In both data sets, a discrimination index (DI) was calculated and used to evaluate the ability of mice to discriminate between familiar and novel objects. Data are represented in FIG. 23.
# Amnesia was induced pharmacologically in mice via scopolamine injection (single dose) for 30 min prior to start the experiments. They were divided into vehicle group: receiving 15% tween 80 and 0.9% NSS, amnesia group: receiving scopolamine 1 mg/kg, standard positive control group receiving tacrine 1 mg/kg, and test group: receiving IND8, QND8 at dose 5, 10, 25, 50 μmol/kg, or PNU-282987 3, 10 mg/kg, single dose. All mice were acclimated in an experimental room at least 30 min before the experiments.
# The apparatus was made of black polyvinyl chloride (52×52×40 cm). The objects used in this experiment had different visual shapes and colors to be discriminated. They were placed 10 cm from the side wall in the balanced manner. The box area and objects were cleaned with 70% ethanol between each experiment to remove odor cues.
# The mice were randomly divided into different treatment groups. They were allowed to freely explore the open field apparatus for 5 min for habituation in the day prior to the experiments to get familiar with the apparatus. On the experimental day, test compounds injected 1 h, whereas scopolamine administered 30 min before the sample phase (acquisition trial). The mice were placed in the apparatus to explore 2 identical objects. After 10 min of acclimation in their cages, one object was changed to a new one, and mice were allowed to explore these objects for 5 min in the test phase (retention trial). The exploration time of each object was recorded if the nose of mice approached the objects within 3 cm or touched the objects. The discrimination index (DI) was calculated by using (TN−TF)/(TN+TF); TN and TF represented exploration time of new and familiar objects, respectively.
# hERG K^+ channel = hERG K^+ channel (Homo sapiens, UniProt Q12809); details: at 20 μM; cited from earlier work
# Sequence of hERG K^+ channel (Q12809 whole entry): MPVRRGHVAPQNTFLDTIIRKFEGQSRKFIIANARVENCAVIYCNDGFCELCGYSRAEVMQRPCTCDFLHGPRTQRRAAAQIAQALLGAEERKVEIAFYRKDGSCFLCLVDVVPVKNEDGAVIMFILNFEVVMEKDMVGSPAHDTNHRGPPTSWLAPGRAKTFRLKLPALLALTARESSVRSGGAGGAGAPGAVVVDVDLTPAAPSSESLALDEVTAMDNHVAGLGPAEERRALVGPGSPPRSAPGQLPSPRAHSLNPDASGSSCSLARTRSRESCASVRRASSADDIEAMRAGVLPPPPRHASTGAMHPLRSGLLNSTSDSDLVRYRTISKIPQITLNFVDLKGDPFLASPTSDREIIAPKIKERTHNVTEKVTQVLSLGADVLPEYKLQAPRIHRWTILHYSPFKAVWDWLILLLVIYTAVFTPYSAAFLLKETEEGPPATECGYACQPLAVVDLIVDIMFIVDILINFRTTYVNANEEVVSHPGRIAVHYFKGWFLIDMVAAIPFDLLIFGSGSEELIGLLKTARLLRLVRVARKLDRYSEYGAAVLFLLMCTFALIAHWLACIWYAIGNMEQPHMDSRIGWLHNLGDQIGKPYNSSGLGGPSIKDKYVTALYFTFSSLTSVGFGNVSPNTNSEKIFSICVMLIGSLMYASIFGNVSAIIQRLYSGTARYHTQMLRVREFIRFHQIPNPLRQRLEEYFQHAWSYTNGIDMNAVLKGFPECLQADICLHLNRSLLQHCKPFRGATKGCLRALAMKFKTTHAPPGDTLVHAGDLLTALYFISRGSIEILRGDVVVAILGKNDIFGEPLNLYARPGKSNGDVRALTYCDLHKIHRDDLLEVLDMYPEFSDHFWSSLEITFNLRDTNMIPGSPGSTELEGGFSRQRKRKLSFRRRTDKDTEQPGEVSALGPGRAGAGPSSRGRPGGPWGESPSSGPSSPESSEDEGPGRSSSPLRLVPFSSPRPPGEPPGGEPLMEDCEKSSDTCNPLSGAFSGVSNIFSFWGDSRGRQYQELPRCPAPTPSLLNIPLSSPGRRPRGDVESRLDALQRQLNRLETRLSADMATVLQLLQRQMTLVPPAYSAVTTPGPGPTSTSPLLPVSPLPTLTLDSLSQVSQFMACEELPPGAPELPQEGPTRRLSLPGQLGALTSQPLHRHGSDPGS
SMILES,"Time in target quadrant, water maze vs scopolamine-treated group [1]",Locomotor activity (number of arm entries) vs vehicle (mice),"Discrimination index / episodic short-term memory, ORT vs scopolamine-treated group [2]","Minimum effective dose, ORT [2] [µmol/kg]",inhibition of hERG (hERG K^+ channel) [%]
"c1cc2cc(-c3cn(C4CN5CCC4CC5)nn3)ccc2[nH]1 (stereo not drawn) [IND8, 5-((Quinuclid-3-yl)-1H-1,2,3-triazol-4-yl)-1H-indole]",significantly spent more time than amnesia group,neither a reduction nor an increase in locomotor activity was observed; also recorded: no significant difference,significantly improved episodic short-term memory,10,–
"O=C(N[C@H]1CN2CCC1CC2)c1ccc(Cl)cc1 [PNU-282987, reference compound]",–,–,–,–,57
"Oc1ccc(-c2cn(C3CN4CCC3CC4)nn2)cc1 (stereo not drawn) [QND8, 3-(4-hydroxyphenyl-1,2,3-triazol-1-yl) quinuclidine]",significantly spent more time than amnesia group,neither a reduction nor an increase in locomotor activity was observed; also recorded: no significant difference,significantly improved episodic short-term memory,10,–
